Values of other authors as cited in patent EP2818484A1, “Synergistic combination of an anti-IgE antibody and an EP2 receptor agonist” (Universitat Autònoma de Barcelona, priority 2013, dated 2014).

System: human lung mast cells
Settings: Kay et al., British Journal of Pharmacology 2006, 147, 707

| SMILES | activation of human lung mast cells |
| --- | --- |
| CCCCC[C@H](O)/C=C/[C@H]1[C@H](O)CC(=O)[C@@H]1C/C=C\CCCC(=O)O [PGE2] | inhibit activation |
| CCCC1([C@H](O)C/C=C/[C@H]2[C@H](O)CC(=O)[C@@H]2CCCCCCC(=O)OC)CCC1 [butaprost] | inhibit activation |
